Experimental data as given in ChEMBL document CHEMBL1250454, “Oral oxytocin antagonists” (J Med Chem, 2010).
Converted amounts (≈) assume the structure as drawn.

Legend:
Vasopressin V1b receptor [1] = molecular target: T1, Vasopressin V1b receptor (Homo sapiens, UniProt P47901); assay: Displacement of [3H]vasopressin from human vasopressin V1b receptor
T1 sequence (P47901 whole entry): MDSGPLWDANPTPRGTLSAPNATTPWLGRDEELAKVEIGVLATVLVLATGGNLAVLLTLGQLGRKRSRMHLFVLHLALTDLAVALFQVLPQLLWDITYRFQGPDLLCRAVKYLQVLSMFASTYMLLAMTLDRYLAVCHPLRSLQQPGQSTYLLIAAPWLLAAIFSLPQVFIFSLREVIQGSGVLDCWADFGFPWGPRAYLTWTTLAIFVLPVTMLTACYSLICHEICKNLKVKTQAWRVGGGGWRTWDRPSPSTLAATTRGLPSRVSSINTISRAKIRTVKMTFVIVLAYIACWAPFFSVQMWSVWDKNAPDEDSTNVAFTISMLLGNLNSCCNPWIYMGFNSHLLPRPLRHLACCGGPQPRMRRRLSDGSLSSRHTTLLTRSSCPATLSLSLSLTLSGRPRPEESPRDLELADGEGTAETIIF

Vasopressin V1a receptor [2] = molecular target: T2, Vasopressin V1a receptor (Homo sapiens, UniProt P37288); assay: Displacement of [3H]vasopressin from human vasopressin V1a receptor
Target sequence in this assay (P37288 whole entry): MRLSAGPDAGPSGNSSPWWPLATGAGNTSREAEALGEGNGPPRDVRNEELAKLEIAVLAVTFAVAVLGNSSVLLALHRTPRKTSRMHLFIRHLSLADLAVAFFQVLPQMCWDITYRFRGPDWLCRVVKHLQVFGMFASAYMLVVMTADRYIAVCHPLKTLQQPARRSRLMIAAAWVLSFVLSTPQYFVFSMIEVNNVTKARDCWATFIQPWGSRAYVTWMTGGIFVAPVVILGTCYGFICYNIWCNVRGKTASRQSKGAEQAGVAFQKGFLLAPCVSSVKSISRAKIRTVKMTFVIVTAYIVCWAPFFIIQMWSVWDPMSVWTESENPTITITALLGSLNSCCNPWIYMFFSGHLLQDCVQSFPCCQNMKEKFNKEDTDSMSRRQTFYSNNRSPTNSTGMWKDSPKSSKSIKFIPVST

Vasopressin V2 receptor [3] = molecular target: T3, Vasopressin V2 receptor (Homo sapiens, UniProt P30518); assay: Displacement of [3H]vasopressin from human vasopressin V2 receptor
Rattus norvegicus [4] = assay: Inhibition of oxytocin-induced uterine contraction in intraduodenally dosed rat; type: functional
[5] = Aqueous solubility of the compound at pH 5; type: physicochemical
Homo sapiens [6] = species: Homo sapiens; assay: Selectivity ratio of Ki for human oxytocin receptor Ki for human vasopressin V1a receptor
Vasopressin V2 receptor [7] = molecular target: Vasopressin V2 receptor (Rattus norvegicus, UniProt Q00788); assay: Displacement of [3H]vasopressin from vasopressin V2 receptor in rat kidney tissue
[8] = Oral bioavailability in rat; type: ADME, organism-based; settings: in vivo
Vasopressin V1a receptor [9] = molecular target: Vasopressin V1a receptor (Rattus norvegicus, UniProt P30560); assay: Displacement of [3H]vasopressin from vasopressin V1a receptor in rat liver tissue
[10] = Half life in rhesus monkey; type: ADME, organism-based, Macaca mulatta; settings: in vivo
[11] = Oral bioavailability in chimpanzee; type: ADME, organism-based, Pan troglodytes; settings: in vivo
Oxytocin receptor [12] = molecular target: T4, Oxytocin receptor (Rattus norvegicus, UniProt P70536); assay: Displacement of [3H]-oxytocin from oxytocin receptor in rat uterus tissue; type: tissue-based
T4 sequence (P70536 whole entry): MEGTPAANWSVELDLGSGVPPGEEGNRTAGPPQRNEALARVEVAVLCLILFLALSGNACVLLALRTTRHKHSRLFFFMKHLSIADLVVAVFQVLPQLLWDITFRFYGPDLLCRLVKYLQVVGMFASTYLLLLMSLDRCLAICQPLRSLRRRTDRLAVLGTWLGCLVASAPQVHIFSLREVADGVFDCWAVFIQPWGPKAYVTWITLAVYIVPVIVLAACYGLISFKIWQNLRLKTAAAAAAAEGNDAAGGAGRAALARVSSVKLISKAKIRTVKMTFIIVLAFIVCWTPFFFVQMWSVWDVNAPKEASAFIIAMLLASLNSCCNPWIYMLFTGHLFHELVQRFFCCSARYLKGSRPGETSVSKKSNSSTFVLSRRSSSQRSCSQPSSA

[13] = Oral bioavailability in rhesus monkey; type: ADME, organism-based, Macaca mulatta; settings: in vivo
Homo sapiens [14] = species: Homo sapiens; assay: Selectivity ratio of Ki for human oxytocin receptor Ki for human vasopressin V2 receptor
Oxytocin receptor [15] = molecular target: T5, Oxytocin receptor (Homo sapiens, UniProt P30559); assay: Displacement of [3H]-oxytocin from oxytocin receptor in human uterus tissue; type: tissue-based
T5 sequence (P30559 whole entry): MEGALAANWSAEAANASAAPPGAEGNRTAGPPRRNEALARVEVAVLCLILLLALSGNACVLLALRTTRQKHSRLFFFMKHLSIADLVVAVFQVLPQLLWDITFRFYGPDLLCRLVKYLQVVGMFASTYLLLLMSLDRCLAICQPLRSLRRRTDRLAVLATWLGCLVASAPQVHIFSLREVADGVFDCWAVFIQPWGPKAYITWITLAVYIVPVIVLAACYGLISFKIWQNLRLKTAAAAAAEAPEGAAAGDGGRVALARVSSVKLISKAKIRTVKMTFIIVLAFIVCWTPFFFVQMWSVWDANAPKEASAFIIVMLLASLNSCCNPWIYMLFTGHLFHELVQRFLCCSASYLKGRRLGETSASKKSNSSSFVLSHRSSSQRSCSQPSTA

Vasopressin V1a receptor [16] = molecular target: T2, Vasopressin V1a receptor; assay: Displacement of [3H]vasopressin from vasopressin V1a receptor in human liver tissue
Target sequence in this assay (P37288 whole entry): as the sequence (P37288 whole entry) above

Rattus norvegicus [17] = assay: Inhibition of oxytocin-induced uterine contraction in iv dosed rat; type: functional
Vasopressin V2 receptor [18] = molecular target: T3, Vasopressin V2 receptor; assay: Displacement of [3H]vasopressin from vasopressin V2 receptor in human kidney tissue
Rattus norvegicus [19] = assay: Inhibition of oxytocin-induced uterine contraction in long-term pregnant anaesthetized rat at 30 mg/kg, po; type: functional; settings: read-out: INH
Rattus norvegicus [20] = assay: Inhibition of oxytocin-induced uterine contraction in non-pregnant anaesthetized rat at 30 mg/kg, po; type: functional
Rattus norvegicus [21] = assay: Inhibition of oxytocin-induced uterine contraction in iv dosed non-pregnant anaesthetized rat; type: functional
Homo sapiens [22] = species: Homo sapiens; assay: Selectivity ratio of Ki for human oxytocin receptor Ki for human vasopressin V1b receptor
Vasopressin V1b receptor [23] = molecular target: T1, Vasopressin V1b receptor; assay: Displacement of [3H]vasopressin from human vasopressin V1b receptor expressed in CHO cells; type: cell-based
[24] = Oral bioavailability in human; type: ADME, organism-based; settings: in vivo
[25] = Oral bioavailability in dog; type: ADME, organism-based, Canis lupus familiaris; settings: in vivo
[26] = Aqueous solubility of the compound at pH 5.2; type: physicochemical; settings: buffer
Vasopressin V1a receptor [27] = molecular target: T2, Vasopressin V1a receptor; assay: Displacement of [3H]vasopressin from human vasopressin V1a receptor expressed in CHO cells at 10 uM; type: cell-based
Oxytocin receptor [28] = molecular target: T5, Oxytocin receptor; assay: Displacement of [3H]-oxytocin from human oxytocin receptor expressed in CHO cells; type: cell-based
[29] = Half life in rat; type: ADME, organism-based; settings: in vivo
[30] = Clearance in rat; type: ADME, organism-based; settings: in vivo
Vasopressin V1a receptor [31] = molecular target: T2, Vasopressin V1a receptor; assay: Displacement of [3H]vasopressin from human vasopressin V1a receptor expressed in CHO cells at 10 uM
Target sequence in this assay (P37288 whole entry, looked up): as the sequence (P37288 whole entry) above

Oxytocin receptor [32] = molecular target: T5, Oxytocin receptor; assay: Displacement of [3H]-oxytocin from human oxytocin receptor expressed in HEK293-EBNA cells; type: cell-based
[33] = Clearance in human; type: ADME, organism-based; settings: in vivo
Homo sapiens [34] = assay: Toxicity in human assessed as tolerated dosed; type: organism-based; settings: in vivo
[35] = Half life in human; type: ADME, organism-based; settings: in vivo
[36] = Clearance in dog; type: ADME, organism-based, Canis lupus familiaris; settings: in vivo
[37] = Solubility of the compound at pH 7.4; type: physicochemical; settings: buffer

Vasopressin V1a receptor (Rattus norvegicus, UniProt P30560), sequence (P30560 whole entry): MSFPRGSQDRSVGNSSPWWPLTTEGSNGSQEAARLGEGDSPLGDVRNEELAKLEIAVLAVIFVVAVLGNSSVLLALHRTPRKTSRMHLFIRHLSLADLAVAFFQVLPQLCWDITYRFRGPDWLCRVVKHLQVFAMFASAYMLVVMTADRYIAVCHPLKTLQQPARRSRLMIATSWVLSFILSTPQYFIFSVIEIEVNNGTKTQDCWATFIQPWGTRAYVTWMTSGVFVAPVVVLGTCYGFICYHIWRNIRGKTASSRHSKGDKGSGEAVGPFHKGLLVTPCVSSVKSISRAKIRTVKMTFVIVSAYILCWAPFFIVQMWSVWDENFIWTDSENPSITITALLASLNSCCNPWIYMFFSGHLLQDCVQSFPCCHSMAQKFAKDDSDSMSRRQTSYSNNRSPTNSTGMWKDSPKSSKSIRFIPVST
Vasopressin V2 receptor (Rattus norvegicus, UniProt Q00788), sequence (Q00788 whole entry): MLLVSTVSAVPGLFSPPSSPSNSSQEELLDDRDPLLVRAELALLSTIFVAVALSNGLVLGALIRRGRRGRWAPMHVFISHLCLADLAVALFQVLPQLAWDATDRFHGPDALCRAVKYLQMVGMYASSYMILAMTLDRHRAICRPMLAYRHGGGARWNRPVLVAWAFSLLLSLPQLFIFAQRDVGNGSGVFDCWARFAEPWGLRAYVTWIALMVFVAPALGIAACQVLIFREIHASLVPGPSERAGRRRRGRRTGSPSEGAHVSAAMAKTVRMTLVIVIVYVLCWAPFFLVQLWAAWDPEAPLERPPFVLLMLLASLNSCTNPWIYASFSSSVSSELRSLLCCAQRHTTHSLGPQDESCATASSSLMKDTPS
T3 sequence (P30518 whole entry): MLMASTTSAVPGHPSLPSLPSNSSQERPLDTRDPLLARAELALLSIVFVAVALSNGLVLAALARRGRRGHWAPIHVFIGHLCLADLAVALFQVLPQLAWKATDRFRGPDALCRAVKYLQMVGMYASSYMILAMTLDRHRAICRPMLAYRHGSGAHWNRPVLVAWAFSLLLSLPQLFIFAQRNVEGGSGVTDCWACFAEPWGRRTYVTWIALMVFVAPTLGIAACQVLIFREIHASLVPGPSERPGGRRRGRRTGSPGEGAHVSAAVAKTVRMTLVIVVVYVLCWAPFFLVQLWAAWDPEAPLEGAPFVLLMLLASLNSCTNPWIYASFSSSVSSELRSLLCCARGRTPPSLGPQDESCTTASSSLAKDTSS

## CC(C)C[C@@H]1C(=O)N[C@H](C2Cc3ccccc3C2)C(=O)N1[C@@H](C(=O)NC(C)C)c1ccc(N(C)C)cc1
Vasopressin V1b receptor [1]
  Ki: > 50.1 µM
Vasopressin V1a receptor [2]
  Ki: > 39.8 µM
Vasopressin V2 receptor [3]
  Ki: > 79.4 µM

## COc1cc(OC2CCN(Cc3ccc[n+]([O-])c3C)CC2)ccc1C(=O)N1CCC(N2C(=O)OCc3ccccc32)CC1
Rattus norvegicus [4]
  AD50: 2.5 mg/kg
[5]
  solubility: 10 mg/mL (≈ 17000 µM)
Homo sapiens [6]
  Ratio Ki: 650
Vasopressin V2 receptor [7]
  Ki: 9.7 µM
[8]
  bioavailability: 80%
Vasopressin V1a receptor [9]
  Ki: 0.00076 µM
[10]
  half-life: 2 h
[11]
  bioavailability: 90%
Oxytocin receptor [12]
  Ki: 0.014 µM
[13]
  bioavailability: 36%
Homo sapiens [14]
  Ratio Ki: > 5700
Oxytocin receptor [15]
  Ki: 0.0049 µM
Vasopressin V1a receptor [16]
  Ki: 3.2 µM
Rattus norvegicus [17]
  AD50: 0.78 mg/kg
Vasopressin V2 receptor [18]
  Ki: 28 µM

## CN(C)CCCNC(=O)CCc1ccc(S(=O)(=O)N(CC(=O)N/N=C2\C(=O)Nc3ccccc32)c2ccc(Cl)cc2)cc1
Rattus norvegicus [19]
  inhibition in vivo at 30 mg/kg: 35%
Rattus norvegicus [20]
  inhibition in vivo at 30 mg/kg: 35%
Homo sapiens [6]
  Ratio Ki: 60
Rattus norvegicus [21]
  ED50: 1.4 mg/kg
Homo sapiens [14]
  Ratio Ki: 580
Homo sapiens [22]
  Ratio Ki: 23000
Vasopressin V1b receptor [23]
  Ki: 0.377 µM

## Cc1ccccc1N1CCN(S(=O)(=O)C[C@]23CC[C@H](C[C@@H]2NC(=O)[C@@H](N)CCS(C)(=O)=O)C3(C)C)CC1
Rattus norvegicus [4]
  AD50: 7 mg/kg
[24]
  bioavailability: 20%
Homo sapiens [6]
  Ratio Ki: 14
Vasopressin V2 receptor [7]
  Ki: 0.2 µM
[8]
  bioavailability: 35%
Vasopressin V1a receptor [9]
  Ki: 0.11 µM
[11]
  bioavailability: 21%
Oxytocin receptor [12]
  Ki: 0.0036 µM
Homo sapiens [14]
  Ratio Ki: 45
[25]
  bioavailability: 25%
Oxytocin receptor [15]
  Ki: 0.013 µM
Vasopressin V1a receptor [16]
  Ki: 0.18 µM
[26]
  solubility: 2.5 mg/kg
Rattus norvegicus [17]
  AD50: 0.35 mg/kg
Vasopressin V2 receptor [18]
  Ki: 0.59 µM

## CC(C)C[C@@H]1C(=O)N[C@H](C2Cc3ccccc3C2)C(=O)N1[C@@H](C(=O)NC(C)C)c1ccc(F)cc1F
Vasopressin V1b receptor [1]
  Ki: > 6.31 µM
Vasopressin V1a receptor [2]
  Ki: 6.31 µM

## CO/N=C1\C[C@@H](C(=O)NCC(O)c2ccccc2)N(C(=O)c2ccc(-c3ccccc3)cc2)C1 (stereo partly specified)
Vasopressin V1a receptor [27]
  inhibition: 68%
Oxytocin receptor [28]
  IC50: 0.26 µM

## COc1ccc(-n2c(C)nnc2-c2cnc(-c3ccc(F)cc3C)cn2)cn1
[29]
  half-life: 1 h
[5]
  solubility: 0.006 mg/mL (≈ 15.9 µM)
[30]
  clearance: 3 L/h/kg
Vasopressin V1b receptor [23]
  Ki: > 10 µM

## CCOc1ccc(S(=O)(=O)N(CC(=O)N/N=C2\C(=O)Nc3ccccc32)c2ccc(C)cc2)cc1
Homo sapiens [6]
  Ratio Ki: 100
Rattus norvegicus [21]
  ED50: 10 mg/kg

## O=C(CN(c1ccccc1)S(=O)(=O)c1ccccc1)N/N=C1\C(=O)Nc2ccccc21
Vasopressin V1a receptor [31]
  inhibition: < 50%

## CO/N=C1/C[C@H](c2nc(C)no2)N(C(=O)c2ccc(-c3ccccc3C)cc2)C1
Oxytocin receptor [32]
  Ki: 0.05 µM
Vasopressin V1a receptor [27]
  Ki: 0.06 µM

## Cc1ccc(S(=O)(=O)N2CCC3(C=Cc4ccccc43)CC2)cc1
Vasopressin V2 receptor [7]
  Ki: > 40 µM
Vasopressin V1a receptor [9]
  Ki: 9.8 µM
Oxytocin receptor [15]
  Ki: 1 µM

## COCc1nnc(N2CC(Oc3ccc(F)cc3Cl)C2)n1-c1ccc(OC)nc1
[24]
  bioavailability: 80%
[33]
  clearance: > 0.48 L/h/kg
[30]
  clearance: 2.16 L/h/kg
Homo sapiens [6]
  Ratio Ki: 118
Homo sapiens [34]
  Activity: 0.3 mg
[35]
  half-life: 12 h
[36]
  clearance: 0.48 L/h/kg
[37]
  solubility: 0.059 mg/mL (≈ 141 µM)
Homo sapiens [14]
  Ratio Ki: 1050
Vasopressin V1b receptor [23]
  Ki: > 10 µM
